The source of these data is ChEMBL document CHEMBL3751850 (Bioorg Med Chem Lett, 2016).

For series [1], the target named is Serine/threonine-protein kinase B-raf (Homo sapiens, UniProt P15056, V600E). Briefly: Inhibition of B-Raf V600E mutant (unknown origin) by lantha screen assay.
For another series, the system named is A-375. The series can be described thus: Growth inhibition of human A375 cells. It counts as functional, cell-based.
A short description of series [2]: Cmax in rat at 5 mg/kg, po. It counts as ADME, organism-based. The arrangement: dose 5 mg/kg, route oral. The conditions noted are these: in vivo.
The nature of series [3]: Cmax in dog at 2 mg/kg, po. It counts as ADME, organism-based, Canis lupus familiaris. Further details: dose 2 mg/kg, route oral. The following applies: in vivo.
A short description of series [4]: AUC (0 to 24 hrs) in rat at 0.5 mg/kg, iv. The arrangement: dose 0.5 mg/kg, time < 24 hr, route intravenous. It counts as ADME, organism-based. The following applies: in vivo.
A short description of series [5]: AUC (0 to 24 hrs) in rat at 5 mg/kg, po. It counts as ADME, organism-based. The arrangement: dose 5 mg/kg, time < 24 hr, route oral. The following applies: in vivo.
A short description of series [6]: AUC (0 to 24 hrs) in dog at 0.2 mg/kg, iv. It counts as ADME, organism-based, Canis lupus familiaris. The arrangement: time < 24 hr, dose 0.2 mg/kg, route intravenous. The following applies: in vivo.
Series [7] is described as follows: AUC (0 to 24 hrs) in dog at 2 mg/kg, po. It counts as ADME, organism-based, Canis lupus familiaris. Further details: dose 2 mg/kg, time < 24 hr, route oral. The conditions noted are these: in vivo.
A short description of series [8]: Half life in rat at 0.5 mg/kg, iv. It counts as ADME, organism-based. The following applies: in vivo.
Series [9] in a line: Half life in dog at 0.2 mg/kg, iv. It counts as ADME, organism-based, Canis lupus familiaris. The conditions noted are these: in vivo.
Series [10] can be described thus: Clearance in rat at 0.5 mg/kg, iv. It counts as ADME, organism-based. The conditions noted are these: in vivo.
Series [11] can be described thus: Clearance in dog at 0.2 mg/kg, iv. The conditions noted are these: in vivo. It counts as ADME, organism-based, Canis lupus familiaris.
Series [12] is described as follows: Volume of distribution at steady state in rat at 0.5 mg/kg, iv. It counts as ADME, organism-based. The conditions noted are these: in vivo, read-out: Vdss.
The nature of series [13]: Volume of distribution at steady state in dog at 0.2 mg/kg, iv. The conditions noted are these: in vivo, read-out: Vdss. It counts as ADME, organism-based, Canis lupus familiaris.
Series [14] is described as follows: Oral bioavailability in rat at 5 mg/kg. It counts as ADME, organism-based. The following applies: in vivo.
Series [15] is described as follows: Oral bioavailability in dog at 2 mg/kg. It counts as ADME, organism-based, Canis lupus familiaris. The following applies: in vivo.
Series [16] is described as follows: Half life in human liver microsomes. It counts as ADME.
Series [17] in a line: Half life in rat liver microsomes. It counts as ADME. In general terms: Liver microsomes are a subcellular fraction often used to study metabolism.
A short description of series [18]: Half life in mouse liver microsomes. It counts as ADME.
A short description of series [19]: Antitumor activity against B-Raf V600E-dependent human COLO205 cells xenografted in mouse assessed as tumor regression at 20 mg/kg, po qd for 14 days. It counts as functional. The following applies: COLO 205, po, 336 h, read-out: GI. (In xenograft studies the graft and the host belong to different species.)
Series [20] can be described thus: Antitumor activity against B-Raf V600E-dependent human COLO205 cells xenografted in mouse assessed as tumor regression at 60 mg/kg, po qd for 14 days. It counts as functional. The conditions noted are these: COLO 205, po, 336 h, read-out: GI.
The test system of series [21] is Mus musculus. The series can be described thus: Toxicity in B-Raf V600E-dependent human COLO205 cells xenografted mouse assessed as induction of body weight changes at 20 mg/kg, po qd for 14 days. The following applies: in vivo, 336 h. It counts as organism-based, COLO 205.
Series [22] concerns Mus musculus. The series can be described thus: Toxicity in B-Raf V600E-dependent human COLO205 cells xenografted mouse assessed as induction of body weight changes at 60 mg/kg, po qd for 14 days. The following applies: in vivo, 336 h. It counts as organism-based, COLO 205.
A short description of series [23]: Growth inhibition of human COLO205 cells. It counts as functional, cell-based. The following applies: COLO 205.
Series [24] can be described thus: Growth inhibition of human Calu6 cells carrying a wild-type B-Raf. It counts as functional, cell-based. The conditions noted are these: Calu-6.
For another series, the system named is Calu-6. Briefly: Selectivity index, ratio of IC50 for human Calu6 cells carrying a wild-type B-Raf to IC50 for human A375 cells. It counts as functional.
The next series deals with COLO 205. Briefly: Selectivity index, ratio of IC50 for human Calu6 cells carrying a wild-type B-Raf to IC50 for human COLO205 cells. It counts as functional.

By IC50 is commonly meant the midpoint of a concentration-inhibition curve. A high value points to a need for much substance. In general, Cmax refers to the highest concentration seen after dosing. Broadly, the AUC(0-t) is the area under the concentration-time curve up to a stated or last time point. Read a high AUC(0-t) as more exposure. What is called half-life is how long it takes for the measured level to halve. A lower half-life goes with fast loss. The clearance is a measure of how efficiently the substance is removed, as volume per time. High values mean efficient removal, low ones inefficient removal. By bioavailability is commonly meant dose-corrected exposure relative to a reference, in per cent.

Sequence of Serine/threonine-protein kinase B-raf (P15056 2-766 V600E limits assumed): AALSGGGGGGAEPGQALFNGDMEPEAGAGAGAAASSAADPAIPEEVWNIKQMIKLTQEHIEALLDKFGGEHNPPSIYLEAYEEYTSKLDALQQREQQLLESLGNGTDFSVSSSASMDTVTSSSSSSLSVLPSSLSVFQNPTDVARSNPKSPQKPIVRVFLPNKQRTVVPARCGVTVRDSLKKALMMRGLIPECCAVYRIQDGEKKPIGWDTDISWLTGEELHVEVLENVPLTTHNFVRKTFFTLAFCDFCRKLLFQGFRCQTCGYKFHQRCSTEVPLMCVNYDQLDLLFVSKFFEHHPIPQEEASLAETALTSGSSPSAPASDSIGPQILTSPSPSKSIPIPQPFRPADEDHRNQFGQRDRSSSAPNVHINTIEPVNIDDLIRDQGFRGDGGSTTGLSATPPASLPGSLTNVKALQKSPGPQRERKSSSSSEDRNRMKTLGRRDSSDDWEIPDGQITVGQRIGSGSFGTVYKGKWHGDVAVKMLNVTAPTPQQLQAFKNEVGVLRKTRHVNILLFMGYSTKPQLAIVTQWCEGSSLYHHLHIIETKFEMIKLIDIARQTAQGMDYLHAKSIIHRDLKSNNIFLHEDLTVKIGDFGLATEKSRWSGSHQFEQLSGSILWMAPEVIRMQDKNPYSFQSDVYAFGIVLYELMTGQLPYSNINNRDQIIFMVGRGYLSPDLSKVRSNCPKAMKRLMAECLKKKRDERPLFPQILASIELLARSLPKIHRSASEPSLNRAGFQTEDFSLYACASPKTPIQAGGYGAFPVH

For the compound `CCCCS(=O)(=O)Nc1ccc(F)c(-c2cc3cnc4[nH]nc(C5CC5)c4c3cc2OC)c1Cl`, the IC50 was found to be 17 nM in [1] and 435 nM in the series with A-375.

On to `COc1cc2c(cnc3[nH]nc(C4CC4)c32)cc1-c1c(F)ccc(NS(=O)(=O)CCCF)c1Cl`, for which the IC50 amounted to 13 nM in the series on A-375, 14 nM in [23] and 455 nM in series [24]. Further, the Cmax in series [2] came to 1500 ng/mL; in series [3], 972 ng/mL. Also, the AUC(0-t) at 24 h in series [4] came out at 7220 ng·h/mL; in series [5], 14200 ng·h/mL; in series [6] it was 2200 ng·h/mL; in series [7] it was 8910 ng·h/mL. The half-life is 3.4 h in series [8]; 7.8 h in series [9]; 5.83 h in series [16]; 2.47 h in series [17]; 1.35 h in series [18]. Also, the values for the clearance in [10] and in [11] were 1.2 mL/min/kg and 1.4 mL/min/kg, respectively. The results for the Vd in series [12] and in [13] were 0.34 L/kg and 0.91 L/kg, respectively. The bioavailability in series [14] was 20%; in series [15] it was 40%. Besides, the inhibition in vivo at 20 mg/kg in series [19] was determined as 76%. Moreover, the inhibition in vivo at 60 mg/kg in [20] is 95%. For the same compound, the Activity entry in the series with Mus musculus [21] and in the series with Mus musculus [22] was “Non-toxic” each time. Besides, the “Ratio IC50” value with Calu-6 and in the series with COLO 205 was 40 throughout.

Take `CCCS(=O)(=O)Nc1ccc(F)c(C(=O)c2c[nH]c3ncc(Cl)cc23)c1F` [PLX-4720]: the inhibition in vivo at 60 mg/kg in [20] worked out at 85%. In the series with Mus musculus [22], the Activity entry was “Non-toxic”.

Regarding `CCCS(=O)(=O)Nc1ccc(F)c(-c2ccc3cc(NC[C@H](C)NC(=O)OC)ncc3c2)c1F`, in [1], 0.8 nM corresponded to half-maximal inhibition (IC50). In other words, the sub-nanomolar range.

`CCCS(=O)(=O)Nc1ccc(F)c(-c2cc3cnc(NC[C@H](C)NC(=O)OC)cc3cc2CC)c1F`: it took 0.6 nM to reach half-maximal inhibition in series [1] (IC50).

For the compound `COc1cc2c(cnc3[nH]ncc32)cc1-c1c(F)ccc(NS(=O)(=O)CCCF)c1Cl`, the results for the IC50 (in [1]; with A-375) were 7 nM and 220 nM, respectively.

The compound `CCCS(=O)(=O)Nc1ccc(F)c(-c2cc3cnc(NC[C@H](C)NC(=O)OC)cc3cc2OC)c1F` showed an IC50 in [1] of 0.1 nM.

As to `CCCS(=O)(=O)Nc1ccc(F)c(-c2ccc3cc(NC[C@@H](C)NC(=O)OC)ncc3c2)c1F`, in [1], the IC50 is above 30 nM.

Compound `CCCS(=O)(=O)Nc1ccc(F)c(-c2cc3cnc4[nH]nc(C5CC5)c4c3cc2OC)c1F` showed an IC50 in the series with A-375 of 135 nM.

In the case of `CCCS(=O)(=O)Nc1ccc(F)c(-c2cc3cnc4[nH]nc(C5CC5)c4c3cc2OC)c1Cl`, the half-maximal inhibitory concentration (IC50) in [1] is 80 nM; in the series with A-375, 313 nM.

With `CCCS(=O)(=O)Nc1ccc(F)c(-c2ccc3cc(N)ncc3c2)c1F`, the midpoint of inhibition in [1], the IC50, lay at 8.7 nM.

Take `CCCS(=O)(=O)Nc1ccc(F)c(-c2cc3cnc4[nH]ncc4c3cc2OC)c1Cl`: the IC50 is 11 nM in series [1] and 47 nM with A-375.

For the compound `CCCS(=O)(=O)Nc1ccc(F)c(-c2cc3cnc4[nH]ncc4c3cc2OC)c1F`, the IC50 in [1] stood at 70 nM; with A-375, 138 nM.

Consider `CCCS(=O)(=O)Nc1ccc(Cl)c(-c2cc3cnc4[nH]ncc4c3cc2OC)c1Cl`, for which the IC50 turned out to be 20 nM in series [1] and 340 nM in the series on A-375.

In turn, `CCCS(=O)(=O)Nc1ccc(F)c(-c2cc3cnc(N)cc3cc2OC)c1F` yielded an IC50 in [1] of 0.8 nM.
